Experimental findings from patent US8609413B2, “Neurons, astrocytes and oligodendrocytes differentiated from a mammalian pluripotent or neural stem cells exposed to a pyridine deriviative” (Research Development Foundation, priority 2007, dated 2013) are described below.

“Also recorded” adds a separate entry of the source.

One experiment deals with H1 human ES cells. Put plainly: Neuronal differentiation of human ES cells, differentiation protocol 2 (clinical grade protocol). In kind it is cell-based. As for the experimental part: Undifferentiated human H1 ES cells were cultured on irradiated mouse embryonic fibroblasts (MEF). To carry out neuronal differentiation, ES cells were mechanically dissociated into small aggregates (50-300 cells) and cultured in suspension on low-attachment six-well plates. For the first 4 days, the cells were cultured in neuronal induction medium (DMEM F-12 (Gibco), N2 supplement (Gibco), penicillin and streptomycin (Gibco), phenazopyridine 3:M). Then the medium was changed to simple neuronal proliferation medium (DMEM F-12, N2 supplement, 20 ng/ml human recombinant bFGF, penicillin and streptomycin, phenazopyridine 3:M) for 2 additional days. Subsequently, 15-20 6-day old cell aggregates were plated on polyornithine/laminin-coated six-well plates and maintained in simple neuronal proliferation medium for 7 days. Cells were then mechanically dissociated and replated in N2 medium (DMEM high glucose (Gibco), 10 ng/ml human recombinant bFGF (Gibco), N2 supplement (Gibco), penicillin and streptomycin (Gibco)) at a density of 20,000 cells per cm^2 on polyornithine/laminin-coated six-well plate. Cells were passaged when they reached 80-90% confluency, and were maintained in the same culture conditions for 2 additional weeks. Stock phenazopyridine (Microsource Discovery Inc.) was prepared by diluting phenazopyridine powder in DMSO (Sigma-Aldrich) at a concentration of 6 mM. The stock solution was diluted at 1:2000 in cell culture media to obtain a final concentration of 3:M Each of the components of the neuronal induction medium, the simple neuronal proliferation medium and the N2 medium can be replaced with clinical grade equivalents. Therefore, the foregoing procedure of carrying out neuronal differentiation is referred to herein as the “clinical grade protocol.”
The effects of phenazopyridine on ES cell differentiation were investigated using the clinical grade-compatible protocol. The first step involved generation of spheres of cells grown in suspension for 6 days, followed by replating on polyornithine/laminin coated plastic. One week later, cells were passaged at 2×10^4 cells/cm^2 on polyornithine/laminin coated plastic, and during the following two weeks cells were passaged when they reached 80-90% confluency. Cells were treated with either DMSO (1:2000) or with phenazopyridine (PAP) at 3:M with equivalent final DMSO concentration throughout the 4 week period.
Two different protocols were used to induce neuronal differentiation of human ES cells. In the first protocol, human ES cells were mechanically dissociated into small aggregates and plated on laminin/polyornithine coated six-well plates. Cells were cultured 2 weeks in human SR medium (DMEM F-12 supplemented with 15% knockout serum (Gibco), non-essential amino acids, penicillin and streptomycin), followed by 4 weeks in N2 medium. Compounds were added throughout these first 6 weeks. Subsequently, cells were mechanically dissociated and replated on polyornithine/laminin-coated 6 well plates. Throughout the text, this first differentiation protocol will be referred to as “differentiation protocol 1”. The second differentiation protocol was derived from previously described differentiation conditions (Nat et al., 2007). In the second differentiation protocol, undifferentiated human ES cells were mechanically dissociated into small aggregates and cultured in suspension on low-attachment six-well plates. For the first 4 days, they were cultured in neuronal induction medium (DMEM F-12, N2 supplement, penicillin and streptomycin), which was changed to simple neuronal proliferation medium (DMEM F-12, N2 supplement, 20 ng/ml bFGF, penicillin and streptomycin) for 2 additional days. Subsequently, aggregates were plated on polyornithine/laminin-coated six-well plates and maintained in simple neuronal proliferation medium for 7 days. Cells were then mechanically dissociated and replated in N2 medium at a density of 2×10^4 cells per cm^2 for two additional weeks.

The subject of the next experiment is HS401 human ES cells. Put plainly: Differentiation protocol 2 in HS401 cell line. In kind it is cell-based. The settings on record: 3 μM vs DMSO. As for the experimental part: Two different protocols were used to induce neuronal differentiation of human ES cells. In the first protocol, human ES cells were mechanically dissociated into small aggregates and plated on laminin/polyornithine coated six-well plates. Cells were cultured 2 weeks in human SR medium (DMEM F-12 supplemented with 15% knockout serum (Gibco), non-essential amino acids, penicillin and streptomycin), followed by 4 weeks in N2 medium. Compounds were added throughout these first 6 weeks. Subsequently, cells were mechanically dissociated and replated on polyornithine/laminin-coated 6 well plates. Throughout the text, this first differentiation protocol will be referred to as “differentiation protocol 1”. The second differentiation protocol was derived from previously described differentiation conditions (Nat et al., 2007). In the second differentiation protocol, undifferentiated human ES cells were mechanically dissociated into small aggregates and cultured in suspension on low-attachment six-well plates. For the first 4 days, they were cultured in neuronal induction medium (DMEM F-12, N2 supplement, penicillin and streptomycin), which was changed to simple neuronal proliferation medium (DMEM F-12, N2 supplement, 20 ng/ml bFGF, penicillin and streptomycin) for 2 additional days. […]

Where [1] appears, read: 3 μM, four weeks of differentiation.

For the compound `Nc1ccc(/N=N/c2ccccc2)c(N)n1` [phenazopyridine], the “dissociation after mechanical passaging” value in the experiment on H1 human ES cells (3 μM vs DMSO) is recorded as “could easily be dissociated into single cells”. Further, the “percentage of living single cells by trypan blue exclusion (survival of dissociated cells)” value in the experiment on H1 human ES cells (3 μM vs DMSO, at passaging at different time points) is recorded as “promotes survival of dissociated cells”. Besides, in the experiment on H1 human ES cells (3 μM vs DMSO, phase contrast), the “sphere morphology after one week of differentiation” value was “No apparent difference; also recorded: morphologically indistinct” and the “sphere morphology at two weeks of differentiation” value is listed as “developed into big areas of monolayer surrounding the plated spheres; also recorded: developed bigger areas of monolayer at their periphery”. In addition, the “neuronal marker phenotype by immunostaining” value in the experiment with H1 human ES cells (3 μM, after four weeks of differentiation) was “Virtually all cells were nestin, Sox 1 and vimentin-positive, expressed β3-tubulin and Pax6 at low levels, and were negative for musashi”. In the experiment on H1 human ES cells (setting [1]), the “cells nestin-positive with low levels of β3-tubulin (early neuronal precursors)” value is recorded as “approximately 98%”; the “non-neural cells (nestin and β3-tubulin negative) or differentiated neurons (β3-tubulin only)” value is “no non-neural cells or differentiated neurons were observed”. The “mitotic figures and PCNA-positive cells in monolayer area” value with H1 human ES cells (3 μM, two weeks, vs DMSO) was “many mitotic figures and PCNA-positive cells”. In addition, in the experiment on HS401 human ES cells, the “morphology and dissociation observations in HS401 cell line” value was “confirmed”.
